Test results taken from article PMC6744458, “A ribose-functionalized NAD^+ with unexpected high activity and selectivity for protein poly-ADP-ribosylation” (Nature Communications, 2019).

Key:
Assay type in all cases: biochemical
[1] = target: T1, catalytic domain of human PARP5a (Homo sapiens, UniProt O95271); experiment: automodification, click biotin labelling, streptavidin-HRP immunoblot; details: […] analogue, […] MgCl2, pH […]
T1 construct: gene TNKS; catalytic domain residues 1093-1327, C-terminal His6, E. coli BL21 (DE3)
T1 sequence (O95271 1093-1327): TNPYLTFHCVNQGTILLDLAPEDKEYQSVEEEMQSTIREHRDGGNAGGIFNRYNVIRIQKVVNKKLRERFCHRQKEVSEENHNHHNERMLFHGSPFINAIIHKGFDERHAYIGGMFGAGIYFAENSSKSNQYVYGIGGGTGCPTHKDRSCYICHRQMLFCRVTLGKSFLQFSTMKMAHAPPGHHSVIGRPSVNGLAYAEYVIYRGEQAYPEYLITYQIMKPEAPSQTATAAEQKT

[2] = target: T2, catalytic domain of human PARP10 (Homo sapiens, UniProt Q53GL7); experiment: as above; details: […] analogue, […] MgCl2, pH […]
T2 construct: catalytic domain residues 809-1017, N-terminal His6, E. coli BL21 (DE3)
T2 sequence (Q53GL7 809-1017): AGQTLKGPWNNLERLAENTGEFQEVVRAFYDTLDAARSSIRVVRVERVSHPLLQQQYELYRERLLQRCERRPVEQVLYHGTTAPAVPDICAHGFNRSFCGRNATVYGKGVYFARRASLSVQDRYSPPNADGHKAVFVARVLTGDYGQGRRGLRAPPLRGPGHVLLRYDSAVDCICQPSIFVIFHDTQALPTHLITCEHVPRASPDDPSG

human NRK1 = target: T3, human NRK1 (Homo sapiens, UniProt Q9NWW6); experiment: HPLC conversion; details: […] NR6, […] ATP, […] MgCl2, pH […], room temperature
T3 construct: gene NMRK1; full length, C-terminal His6, pET-28a, E. coli BL21 (DE3)
T3 sequence (Q9NWW6 1-199): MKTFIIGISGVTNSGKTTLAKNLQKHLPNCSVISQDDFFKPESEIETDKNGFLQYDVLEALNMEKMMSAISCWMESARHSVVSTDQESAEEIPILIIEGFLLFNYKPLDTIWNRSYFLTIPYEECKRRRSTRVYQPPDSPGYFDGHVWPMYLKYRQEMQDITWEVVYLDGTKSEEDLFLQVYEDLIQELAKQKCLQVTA

| SMILES | automodification, click biotin labelling, streptavidin-HRP immunoblot [1] | automodification, click biotin labelling, streptavidin-HRP immunoblot [2] | HPLC conversion (human NRK1) |
| --- | --- | --- | --- |
| C#CCNc1ncnc2c1ncn2[C@@H]1O[C@H](COP(=O)(O)OP(=O)([O-])OC[C@H]2O[C@@H]([n+]3cccc(C(N)=O)c3)[C@H](O)[C@@H]2O)[C@@H](O)[C@H]1O [6-a-NAD^+, 6-alkyne-NAD^+] | 6-a-NAD^+ and 2-a-NAD^+ that displayed strong automodification activities for both enzymes | 6-a-NAD^+ and 2-a-NAD^+ that displayed strong automodification activities for both enzymes | – |
| [N-]=[N+]=N[C@H]1[C@@H](O)[C@H]([n+]2cccc(C(N)=O)c2)O[C@@H]1CO [NR6] | – | – | NRK1 that could only catalyze conversion of NR5 and NR6 |
| C#Cc1nc(N)c2ncn([C@@H]3O[C@H](COP(=O)(O)OP(=O)([O-])OC[C@H]4O[C@@H]([n+]5cccc(C(N)=O)c5)[C@H](O)[C@@H]4O)[C@@H](O)[C@H]3O)c2n1 [2-a-NAD^+, 2-alkyne-NAD^+] | 6-a-NAD^+ and 2-a-NAD^+ that displayed strong automodification activities for both enzymes | 6-a-NAD^+ and 2-a-NAD^+ that displayed strong automodification activities for both enzymes | – |
